For 1 molecule, Ratio results are on record in ChEMBL document CHEMBL1156528, “Acetyl-lysine analog peptides as mechanistic probes of protein deacetylases” (J Biol Chem, 2007).

The target of this assay is NAD-dependent protein deacetylase HST2 (Saccharomyces cerevisiae S288c) (UniProt P53686). The experiment in a line: Ratio of Vmax to Km for Saccharomyces cerevisiae Hst2.
NAD-dependent protein deacetylase HST2 (Saccharomyces cerevisiae S288c), sequence (P53686 whole entry): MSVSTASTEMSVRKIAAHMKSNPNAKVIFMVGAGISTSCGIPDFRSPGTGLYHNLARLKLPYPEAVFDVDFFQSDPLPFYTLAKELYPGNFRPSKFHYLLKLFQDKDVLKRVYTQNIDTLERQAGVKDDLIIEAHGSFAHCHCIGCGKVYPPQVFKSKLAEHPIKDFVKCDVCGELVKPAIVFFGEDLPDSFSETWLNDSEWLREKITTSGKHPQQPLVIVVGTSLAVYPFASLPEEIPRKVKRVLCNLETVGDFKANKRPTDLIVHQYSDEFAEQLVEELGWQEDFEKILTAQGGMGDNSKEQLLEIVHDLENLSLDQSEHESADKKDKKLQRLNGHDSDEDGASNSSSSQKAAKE

On to `C[C@H](NC(=O)[C@H](CCCCNC(N)=O)NC(=O)CNC(=O)CNC(=O)[C@@H](NC(=O)[C@H](CO)NC(=O)[C@@H](N)CCCCN)[C@@H](C)O)C(=O)N1CCC[C@H]1C(=O)N[C@@H](CCCNC(=N)N)C(=O)N[C@@H](CCCCN)C(=O)N[C@@H](CCC(N)=O)C(=O)O`, for which the Ratio was found to be 7.4 ×10³ /M/s.
